{
  "source": "a compilation of properties of binary mixtures (doi:10.1021/acs.jpcb.9b04724)",
  "assay": "xn = mol fraction of the nth substance listed",
  "details": "101 kPa",
  "data": [
    {"smiles": "CC[n+]1ccn(C)c1.N#C[N-]C#N", "note": "+ CCCC[N+](C)(CCCC)CCCC.N#C[N-]C#N", "values": [
      {"measurement": "viscosity", "setting": "293.15 K, x1 = 1", "value": 17.41, "unit": "mPa·s"},
      {"measurement": "viscosity", "setting": "313.15 K, x1 = 1", "value": 10.05, "unit": "mPa·s"},
      {"measurement": "viscosity", "setting": "333.15 K, x1 = 1", "value": 6.65, "unit": "mPa·s"}
    ]},
    {"smiles": "CCCC[N+](C)(CCCC)CCCC.N#C[N-]C#N", "note": "+ CC[n+]1ccn(C)c1.N#C[N-]C#N", "values": [
      {"measurement": "viscosity", "setting": "293.15 K, x2 = 0", "value": 498, "unit": "mPa·s"},
      {"measurement": "viscosity", "setting": "293.15 K, x2 = 0.2114", "value": 201, "unit": "mPa·s"},
      {"measurement": "viscosity", "setting": "293.15 K, x2 = 0.3975", "value": 101.3, "unit": "mPa·s"},
      {"measurement": "viscosity", "setting": "293.15 K, x2 = 0.6047", "value": 50.5, "unit": "mPa·s"},
      {"measurement": "viscosity", "setting": "293.15 K, x2 = 0.8003", "value": 28.3, "unit": "mPa·s"},
      {"measurement": "viscosity", "setting": "303.15 K, x2 = 0", "value": 239, "unit": "mPa·s"},
      {"measurement": "viscosity", "setting": "303.15 K, x2 = 0.3975", "value": 60.6, "unit": "mPa·s"},
      {"measurement": "viscosity", "setting": "303.15 K, x2 = 0.8003", "value": 19.8, "unit": "mPa·s"},
      {"measurement": "viscosity", "setting": "313.15 K, x2 = 0", "value": 127.3, "unit": "mPa·s"},
      {"measurement": "viscosity", "setting": "313.15 K, x2 = 0.2114", "value": 65.2, "unit": "mPa·s"},
      {"measurement": "viscosity", "setting": "313.15 K, x2 = 0.3975", "value": 39.2, "unit": "mPa·s"},
      {"measurement": "viscosity", "setting": "313.15 K, x2 = 0.6047", "value": 22.87, "unit": "mPa·s"},
      {"measurement": "viscosity", "setting": "313.15 K, x2 = 0.8003", "value": 14.56, "unit": "mPa·s"},
      {"measurement": "viscosity", "setting": "323.15 K, x2 = 0", "value": 74.9, "unit": "mPa·s"},
      {"measurement": "viscosity", "setting": "323.15 K, x2 = 0.2114", "value": 42.1, "unit": "mPa·s"},
      {"measurement": "viscosity", "setting": "323.15 K, x2 = 0.3975", "value": 26.8, "unit": "mPa·s"},
      {"measurement": "viscosity", "setting": "323.15 K, x2 = 0.6047", "value": 16.69, "unit": "mPa·s"},
      {"measurement": "viscosity", "setting": "323.15 K, x2 = 0.8003", "value": 11.15, "unit": "mPa·s"},
      {"measurement": "viscosity", "setting": "333.15 K, x2 = 0", "value": 47.6, "unit": "mPa·s"},
      {"measurement": "viscosity", "setting": "333.15 K, x2 = 0.2114", "value": 28.7, "unit": "mPa·s"},
      {"measurement": "viscosity", "setting": "333.15 K, x2 = 0.6047", "value": 12.65, "unit": "mPa·s"},
      {"measurement": "viscosity", "setting": "333.15 K, x2 = 0.8003", "value": 9.11, "unit": "mPa·s"},
      {"measurement": "viscosity", "setting": "343.15 K, x2 = 0", "value": 32, "unit": "mPa·s"},
      {"measurement": "viscosity", "setting": "343.15 K, x2 = 0.3975", "value": 14.44, "unit": "mPa·s"},
      {"measurement": "viscosity", "setting": "343.15 K, x2 = 0.6047", "value": 10.13, "unit": "mPa·s"},
      {"measurement": "viscosity", "setting": "343.15 K, x2 = 0.8003", "value": 7.26, "unit": "mPa·s"},
      {"measurement": "viscosity", "setting": "353.15 K, x2 = 0", "value": 22.6, "unit": "mPa·s"},
      {"measurement": "viscosity", "setting": "353.15 K, x2 = 0.6047", "value": 8.18, "unit": "mPa·s"},
      {"measurement": "viscosity", "setting": "353.15 K, x2 = 0.8003", "value": 5.93, "unit": "mPa·s"}
    ]}
  ]
}
